Holding throughout (assay type): biochemical
One experiment concerns the target pCAF (Homo sapiens, UniProt Q92831). Kind of experiment: HAT in vitro assay, pCAF. The following applies: substrate Histone H3; 3 μM Acetyl-CoA; 10-dose IC50 mode; read-out: IC50 pCAF acetyltransferase. As for the experimental part:
(§1) MC2884 activity was also tested in vitro and IC50 was calculated as indicated in the scheme. […] Reactions were carried out at 3 μM Acetyl-CoA. Empty cells indicate no inhibition or compound activity that could not be fit to an IC50 curve.

In a further experiment the target is GCN5 (Homo sapiens, UniProt Q92830). Kind of experiment: HAT in vitro assay, GCN5. The following applies: substrate Histone H3; 3 μM Acetyl-CoA; 10-dose IC50 mode; read-out: IC50 GCN5 acetyltransferase. As for the experimental part:
as §1

The next experiment deals with CBP (Homo sapiens, UniProt Q92793). Kind of experiment: HAT in vitro assay, CBP. As to conditions: substrate Histone H3; 3 μM Acetyl-CoA; 10-dose IC50 mode; read-out: IC50 CBP acetyltransferase. The protocol:
as §1

In another experiment the target is KAT5 (Homo sapiens, UniProt Q92993). The experiment can be described thus: HAT in vitro assay, KAT5. The following applies: substrate Histone H2A; 3 μM Acetyl-CoA; 10-dose IC50 mode; read-out: IC50 KAT5 acetyltransferase. As for the experimental part: as §1
KAT5, sequence (Q92993 whole entry): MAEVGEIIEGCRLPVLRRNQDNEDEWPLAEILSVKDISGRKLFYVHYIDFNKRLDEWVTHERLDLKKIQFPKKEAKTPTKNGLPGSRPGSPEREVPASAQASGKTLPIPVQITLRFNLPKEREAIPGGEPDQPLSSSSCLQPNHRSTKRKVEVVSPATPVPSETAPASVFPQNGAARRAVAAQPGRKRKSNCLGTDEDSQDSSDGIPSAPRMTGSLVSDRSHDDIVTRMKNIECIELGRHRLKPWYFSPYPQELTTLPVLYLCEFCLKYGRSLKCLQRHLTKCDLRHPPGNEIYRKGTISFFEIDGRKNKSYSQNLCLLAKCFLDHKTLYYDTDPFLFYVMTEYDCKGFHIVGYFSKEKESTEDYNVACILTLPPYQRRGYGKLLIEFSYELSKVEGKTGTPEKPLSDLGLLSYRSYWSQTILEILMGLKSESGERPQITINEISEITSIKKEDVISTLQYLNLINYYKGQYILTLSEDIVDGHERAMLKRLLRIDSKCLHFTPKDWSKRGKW

GCN5, sequence (Q92830 whole entry): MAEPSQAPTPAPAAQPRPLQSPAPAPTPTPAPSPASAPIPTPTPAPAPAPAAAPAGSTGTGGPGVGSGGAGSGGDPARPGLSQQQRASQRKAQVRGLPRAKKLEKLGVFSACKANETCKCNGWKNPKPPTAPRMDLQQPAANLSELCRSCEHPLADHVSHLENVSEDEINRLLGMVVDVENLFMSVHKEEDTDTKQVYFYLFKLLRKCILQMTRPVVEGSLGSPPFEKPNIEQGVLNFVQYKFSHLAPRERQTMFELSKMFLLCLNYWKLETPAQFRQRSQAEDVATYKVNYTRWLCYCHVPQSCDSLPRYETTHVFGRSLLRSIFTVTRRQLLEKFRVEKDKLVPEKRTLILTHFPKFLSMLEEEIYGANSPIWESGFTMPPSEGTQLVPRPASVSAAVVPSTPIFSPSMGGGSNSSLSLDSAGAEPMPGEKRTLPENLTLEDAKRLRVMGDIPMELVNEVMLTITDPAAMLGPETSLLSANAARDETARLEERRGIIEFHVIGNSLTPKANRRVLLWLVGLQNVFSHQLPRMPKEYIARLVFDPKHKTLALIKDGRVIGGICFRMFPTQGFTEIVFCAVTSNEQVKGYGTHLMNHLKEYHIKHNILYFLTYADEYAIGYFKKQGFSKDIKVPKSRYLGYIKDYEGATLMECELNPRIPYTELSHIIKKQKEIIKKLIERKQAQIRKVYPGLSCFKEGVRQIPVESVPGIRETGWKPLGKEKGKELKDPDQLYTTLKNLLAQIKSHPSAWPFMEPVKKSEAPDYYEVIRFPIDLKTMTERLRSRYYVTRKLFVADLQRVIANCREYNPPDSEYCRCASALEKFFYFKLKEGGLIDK
pCAF, sequence (Q92831 whole entry): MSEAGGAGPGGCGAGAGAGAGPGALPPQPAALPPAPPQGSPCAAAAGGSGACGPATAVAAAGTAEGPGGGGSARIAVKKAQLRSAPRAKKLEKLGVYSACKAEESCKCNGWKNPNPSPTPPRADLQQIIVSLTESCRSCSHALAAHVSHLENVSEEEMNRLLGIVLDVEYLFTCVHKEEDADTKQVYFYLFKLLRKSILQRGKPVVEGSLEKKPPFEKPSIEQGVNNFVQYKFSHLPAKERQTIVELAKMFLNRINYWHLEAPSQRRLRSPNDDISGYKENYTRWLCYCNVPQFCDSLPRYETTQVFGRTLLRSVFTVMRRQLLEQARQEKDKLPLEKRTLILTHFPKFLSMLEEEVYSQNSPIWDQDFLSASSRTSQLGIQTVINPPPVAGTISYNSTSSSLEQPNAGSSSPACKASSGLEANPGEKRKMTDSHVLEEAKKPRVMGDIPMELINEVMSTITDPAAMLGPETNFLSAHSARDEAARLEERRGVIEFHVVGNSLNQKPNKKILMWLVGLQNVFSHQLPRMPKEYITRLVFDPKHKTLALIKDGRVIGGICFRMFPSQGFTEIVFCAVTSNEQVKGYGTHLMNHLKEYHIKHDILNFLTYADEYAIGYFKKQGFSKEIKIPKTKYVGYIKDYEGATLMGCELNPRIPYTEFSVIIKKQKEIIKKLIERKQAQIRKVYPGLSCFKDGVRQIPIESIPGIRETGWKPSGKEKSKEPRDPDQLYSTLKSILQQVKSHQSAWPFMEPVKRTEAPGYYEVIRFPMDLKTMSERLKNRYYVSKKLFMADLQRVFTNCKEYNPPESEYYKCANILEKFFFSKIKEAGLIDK
CBP, sequence (Q92793 whole entry): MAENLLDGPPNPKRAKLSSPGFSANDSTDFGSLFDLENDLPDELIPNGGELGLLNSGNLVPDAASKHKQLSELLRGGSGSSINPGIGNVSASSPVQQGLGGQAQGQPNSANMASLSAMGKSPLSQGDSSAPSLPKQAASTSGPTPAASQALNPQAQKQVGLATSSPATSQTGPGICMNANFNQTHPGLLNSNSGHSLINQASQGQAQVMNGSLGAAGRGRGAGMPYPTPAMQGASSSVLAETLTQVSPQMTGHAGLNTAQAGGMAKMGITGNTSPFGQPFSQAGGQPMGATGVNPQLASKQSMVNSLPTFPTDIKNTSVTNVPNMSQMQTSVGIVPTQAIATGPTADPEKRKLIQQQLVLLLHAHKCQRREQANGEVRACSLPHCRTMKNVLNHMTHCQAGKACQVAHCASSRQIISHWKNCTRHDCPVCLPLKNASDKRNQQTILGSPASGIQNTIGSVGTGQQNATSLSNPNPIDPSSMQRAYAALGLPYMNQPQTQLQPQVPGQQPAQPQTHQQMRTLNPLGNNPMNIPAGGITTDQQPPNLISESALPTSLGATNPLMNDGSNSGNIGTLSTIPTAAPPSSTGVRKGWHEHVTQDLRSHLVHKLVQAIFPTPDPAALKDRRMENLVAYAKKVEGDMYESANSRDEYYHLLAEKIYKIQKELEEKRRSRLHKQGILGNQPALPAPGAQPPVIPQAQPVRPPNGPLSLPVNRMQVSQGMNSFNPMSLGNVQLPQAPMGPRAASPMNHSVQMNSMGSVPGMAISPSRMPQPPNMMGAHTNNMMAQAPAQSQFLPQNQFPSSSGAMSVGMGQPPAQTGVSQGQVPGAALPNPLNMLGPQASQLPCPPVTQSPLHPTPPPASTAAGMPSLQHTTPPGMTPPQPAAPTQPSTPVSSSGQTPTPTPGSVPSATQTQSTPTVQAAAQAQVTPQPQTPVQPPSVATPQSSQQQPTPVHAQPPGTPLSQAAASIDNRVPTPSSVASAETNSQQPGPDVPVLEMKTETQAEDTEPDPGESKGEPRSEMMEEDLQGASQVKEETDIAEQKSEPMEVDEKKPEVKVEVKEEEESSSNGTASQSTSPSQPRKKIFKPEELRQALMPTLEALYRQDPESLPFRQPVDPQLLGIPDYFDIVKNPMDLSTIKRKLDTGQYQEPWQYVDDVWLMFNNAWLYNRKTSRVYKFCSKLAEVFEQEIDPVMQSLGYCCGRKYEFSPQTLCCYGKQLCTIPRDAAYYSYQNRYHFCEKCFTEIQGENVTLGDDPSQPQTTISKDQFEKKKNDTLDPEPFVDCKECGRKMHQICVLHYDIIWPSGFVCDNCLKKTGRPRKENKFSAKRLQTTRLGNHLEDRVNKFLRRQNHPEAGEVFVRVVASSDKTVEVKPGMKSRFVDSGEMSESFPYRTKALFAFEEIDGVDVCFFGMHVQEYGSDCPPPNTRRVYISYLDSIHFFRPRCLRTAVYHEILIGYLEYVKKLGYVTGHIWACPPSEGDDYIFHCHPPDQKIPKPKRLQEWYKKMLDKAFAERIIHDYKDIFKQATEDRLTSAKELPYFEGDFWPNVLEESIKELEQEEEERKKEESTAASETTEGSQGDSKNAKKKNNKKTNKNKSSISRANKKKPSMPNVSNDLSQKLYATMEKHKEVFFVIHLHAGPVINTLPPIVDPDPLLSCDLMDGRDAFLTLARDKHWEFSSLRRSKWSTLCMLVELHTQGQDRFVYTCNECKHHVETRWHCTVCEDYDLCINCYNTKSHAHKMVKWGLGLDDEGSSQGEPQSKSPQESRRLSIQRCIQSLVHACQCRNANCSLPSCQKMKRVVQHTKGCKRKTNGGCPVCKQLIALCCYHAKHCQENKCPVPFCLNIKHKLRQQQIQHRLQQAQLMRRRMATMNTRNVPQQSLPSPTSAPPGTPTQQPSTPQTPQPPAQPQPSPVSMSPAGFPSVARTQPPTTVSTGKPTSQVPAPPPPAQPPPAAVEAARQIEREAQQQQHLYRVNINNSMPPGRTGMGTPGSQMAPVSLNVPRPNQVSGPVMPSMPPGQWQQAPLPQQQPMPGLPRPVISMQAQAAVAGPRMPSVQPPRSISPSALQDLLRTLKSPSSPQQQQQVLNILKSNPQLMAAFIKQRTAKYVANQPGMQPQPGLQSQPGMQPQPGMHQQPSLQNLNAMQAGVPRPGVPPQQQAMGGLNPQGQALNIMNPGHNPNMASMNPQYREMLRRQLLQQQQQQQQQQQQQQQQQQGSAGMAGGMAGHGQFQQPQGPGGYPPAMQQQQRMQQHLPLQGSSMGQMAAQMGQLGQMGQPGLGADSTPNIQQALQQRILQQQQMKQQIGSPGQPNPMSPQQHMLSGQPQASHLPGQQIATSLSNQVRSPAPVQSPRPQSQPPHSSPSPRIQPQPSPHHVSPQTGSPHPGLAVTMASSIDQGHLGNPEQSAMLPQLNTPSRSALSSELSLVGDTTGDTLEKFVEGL

Broadly, the IC50 is the concentration that gives 50% inhibition. As for `CCCCCCCCCCCCCCCc1cccc(O)c1C(=O)O` [Anacardic Acid], the IC50 came out at 38.8 µM on pCAF and 38.6 µM at GCN5.
`CC1=NN(c2ccc(C(=O)O)cc2)C(=O)/C1=C\c1ccc(-c2cc(C)c(C)cc2[N+](=O)[O-])o1` [C646]: the IC50 at CBP was 0.0787 µM; at KAT5, 20.4 µM.

Values taken from patent US20190284635A1, “METHOD FOR THE PROGNOSIS AND/OR TREATMENT OF ACUTE PROMYELOCYTIC LEUKEMIA” (EPI-C S.R.L., priority 2016, published 2019).
